According to patent publication US12215106B2, “Pharmaceutical compounds and therapeutic methods” (RUTGERS, THE STATE UNIVERSITY OF NEW JERSEY, priority 2018, dated 2025):
Structures can show the parent of a compound that is named as a salt. Where two headings read alike, the source gives them in different places.

Experiments:
[1] = test system: glioblastoma patient derived spheres; assay: MTT assay, cell viability of patient derived GBM spheres; format: cell-based; settings: Homo sapiens
From the text: To generate primary patient-derived GBM models for testing small molecule inhibitors, fresh primary tissues were received from patients undergoing surgical resection of WHO grade IV gliomas at Robert Wood Johnson University Hospital (RWJUH) under an approved IRB protocol. De-identified primary human GBM samples were delivered to the laboratory. Cells were obtained through mechanical dissociation of the tumor tissue using a blade and plated in DMEM/F12 medium (Gibco) in the presence of B-27 Supplement (Gibco, #17504-044), 20 ng/ml of human recombinant EGF (Gibco, #PHG0311L) and human recombinant FGF (Peprotech, #AF-100-18B). The following day, the culture was collected, incubated with Accutase (Gibco, #A11105-01) at 37° C. and passed through a 26G×⅜ needle (BD Precision Glide, #305110) to obtain a single cell suspension and re-plated in the same supplemented medium. Cells were cultured at low (5-6) passages in serum-free sphere 3D culture with mitogens that preserve the clonogenic stemness phenotype. […] different primary GBM cells (GBM #46, GBM #50, and GBM #76) were tested for cell viability after treatment with the inhibitors. Cell viability was measured using MTT assay. Briefly, one thousand cells per well were seeded in 96-well plates and exposed to drug in a total of 200 uL media. After 72 hours, 50 uL of stock concentration of 2.5 mg/mL 3-(4,5-dimethylthiazol-2-yl)-2,5-diphenyltetrazolium bromide (MTT) (Sigma, #M2128) dissolved in PBS was added to wells and incubated at 37° C. for 4 hours; read in a […] plate reader at 570 nm and compared to DMSO and untreated cells. The IC50 (defined as the concentration at which 50% of the cells were viable) was determined from the curve.
Novel compounds were synthesized and examined for their effectiveness on inhibiting the growth of patient derived GBM sphere cells that are more enriched in cancer stem-like cells (CSCs). An IC50 was established by measuring cell viability using a MTT assay when compared to vehicle control (DMSO) (FIG. 1-6).

[2] = test system: STAT1; assay: Western blotting of STAT1 protein levels in GBM spheres; format: cell-based, human; settings: 72 hours
Description: GBM cells were treated with DMSO or different concentrations of the test compounds for 72 hours. Cells were lysed in Cell Lysis Buffer (Cell Signaling, #9803) supplemented with Protease Inhibitor Cocktail (Sigma, #P8340), sonicated briefly while on ice and spun down for 30 minutes at 4° C., after which the supernatant was collected. For each sample, 2 uL of lysate was mixed well into 198 uL de-ionized water. Next, 10 uL of this diluted sample was added to a well in a 96 well plate in quadruplets and mixed with Protein Assay Dye Reagent Concentrate (Bio-Rad, #500-0006) (which was diluted 1:5 with water). BSA standards of 25 ng, 50 ng, 100 ng, 200 ng and 250 ng were also used to the plate and mixed with the reagent. The plate was read in a plate reader at 600 nm and samples were calibrated to the standards to determine the concentration of protein. Using the NuPAGE system (Invitrogen), 25 ug of protein was mixed with NuPAGE LDS 4× Sample Buffer (#NP0007), NuPAGE 10× Reducing Agent (#NP0004) and water, mixed well and heated at 96° C. for 15 minutes to denature the protein. The samples were then loaded into 4-12% Bis-Tris gels (Novex (Invitrogen), #0323) with a protein ladder (Novex (Invitrogen) Sharp Pre-stained protein ladder, #57318) and run at 100-120V for about 2 hours with NuPAGE 20×SDS MES Running Buffer (#NP0002) diluted with water. Next, the gel was taken out and loaded into a NuPAGE transfer cassette with a polyvinylidene membrane with NuPAGE 20× Transfer Buffer (#NP0006-1) diluted with water and methanol. Proteins were transferred for 1 hour at 30V at room temperature. Blocking was performed using the Millipore SNAP i.d. Protein Detection system in 0.25% non-fat dry milk in 0.1% Tween in PBS (PBST). […] Protein signals were detected using ECL Western Blotting Substrate (Pierce, #32106) and filmed. […]

[3] = in vitro; settings: pH 7.4; for % Remaining at 60 min (Buffer) / % Remaining at 60 min (+NADPH) / % Remaining at 60 min (−NADPH) / Percentage turnover in MLM (percent remaining), 60 min: 1 h; for % Remaining at 60 min (Buffer) / CLh, int / Percentage turnover in MLM (percent remaining), 0 min / Percentage turnover in MLM (percent remaining), 5 min / Percentage turnover in MLM (percent remaining), 15 min / Percentage turnover in MLM (percent remaining), 30 min / % Remaining at 60 min (+NADPH) / % Remaining at 60 min (−NADPH) / Percentage turnover in MLM (percent remaining), 60 min / Metabolic stability in liver microsomes, compound remaining: 1 μM; for CLh, int / Percentage turnover in MLM (percent remaining), 0 min / Percentage turnover in MLM (percent remaining), 5 min / Percentage turnover in MLM (percent remaining), 15 min / Percentage turnover in MLM (percent remaining), 30 min / % Remaining at 60 min (+NADPH) / % Remaining at 60 min (−NADPH) / Percentage turnover in MLM (percent remaining), 60 min / Metabolic stability in liver microsomes, compound remaining / half-life at 1 μM: mouse; for Percentage turnover in MLM (percent remaining), 0 min / Percentage turnover in MLM (percent remaining), 5 min / Percentage turnover in MLM (percent remaining), 15 min / Percentage turnover in MLM (percent remaining), 30 min / % Remaining at 60 min (+NADPH) / % Remaining at 60 min (−NADPH) / Percentage turnover in MLM (percent remaining), 60 min / Metabolic stability in liver microsomes, compound remaining / half-life at 1 μM: microsomes; for Percentage turnover in MLM (percent remaining), 0 min: 0 h; for Percentage turnover in MLM (percent remaining), 15 min: 0.25 h; for Percentage turnover in MLM (percent remaining), 30 min: 0.5 h; for Metabolic stability in liver microsomes, compound remaining: 60 min
Description: The objective of the study was to evaluate the metabolic stability of test compounds in liver microsomes from mice (MLM). This was accomplished by incubating test compounds with microsomes and monitoring disappearance with time using LCMS/MS. Imipramine in MLM was run as positive control.
Potassium phosphate buffer (Kphos) was prepared by adding 0.647 g potassium phosphate monobasic (KH2PO4) and 3.527 g potassium phosphate dibasic (K2HPO4) to 400 mL of Milli-Q water. pH of the buffer was adjusted to 7.4 and volume was made up to 500 mL.
Stock solutions of test compounds were prepared in DMSO at a concentration of 1 mM.
From the above mix, 70 μL was added to individual wells of 96 well reaction plates and pre-incubated at 37° C. for 5 min. […] Reactions without NADPH and buffer controls (minus NADPH) at 0 minutes and 60 minutes were also incubated to rule out non-NADPH metabolism or chemical instability in the incubation buffer. All reactions were terminated using 100 μL of ice-cold acetonitrile containing internal standard (glipizide) at 0, 5, 15, 30 and 60 minutes.
Samples were monitored for parent compounds disappearance in MRM mode using LC-MS/MS.
The percent remaining of test compounds and positive control in each sample was determined by considering peak area ratio in the 0 minute sample as 100%.
In vitro intrinsic clearance (CL'int) (units in mL/min/kg) was also calculated.

[4] = 72 h, read-out: IC50, antitumor activity against glioblastoma patient derived spheres
[5] = read-out: Potency in patient derived GBM spheres

Compound | IC50 ([1]; MTT, 72 hours, figure legends, read-out: IC50, antitumor activity against glioblastoma patient derived spheres) | IC50 ([1]; summary data, read-out: Potency in patient derived GBM spheres) | STAT1 protein levels [2] | % Remaining at 60 min (Buffer) [3] | CLh, int [3] | Percentage turnover in MLM (percent remaining), 0 min [3] | Percentage turnover in MLM (percent remaining), 5 min [3] | Percentage turnover in MLM (percent remaining), 15 min [3] | Percentage turnover in MLM (percent remaining), 30 min [3] | % Remaining at 60 min (+NADPH) [3] | % Remaining at 60 min (−NADPH) [3] | Percentage turnover in MLM (percent remaining), 60 min [3] | Metabolic stability in liver microsomes, compound remaining [3] | half-life at 1 μM [3] | IC50 [1, 4] | IC50 [1, 5]
COc1c(F)cc(Nc2nc(-c3c(C)nc4ccccn34)cs2)cc1F [Compound 14, hydrochloride] | 0.007 µM | 0.01 µM | lowered STAT1 | 66% | 550 mL/min/kg | 100% | 88% | 62% | 36% | 13% | 33% | 13% | < 50% | 20 min | – | –
[2H]C([2H])([2H])Oc1ccc(Nc2nc(-c3c(C)nc4ccccn34)cs2)cc1 [Compound 15, N-(4-(methoxy-d3)phenyl)-4-(2-methylimidazo[1,2-c]pyridin-3-yl)thiazol-2-amine hydrochloride] | – | – | lowered STAT1 | 85% | 215 mL/min/kg | 100% | 100% | 98% | 67% | 48% | 93% | 48% | < 50% | 52 min | 0.007 µM | 1 µM
Cc1nc2ccccn2c1-c1csc(Nc2ccc3c(c2)OC(F)(F)O3)n1 [Compound 16, N-(2,2-difluorobenzo[d][1,3]dioxol-5-yl)-4-(2-methylimidazo[1,2-a]pyridin-3-yl)thiazol-2-amine hydrochloride] | – | – | – | 87% | 759 mL/min/kg | 100% | 83% | 58% | 35% | 6% | 62% | 6% | < 50% | 15 min | 0.2 µM | 0.01 µM
[2H]C1([2H])Oc2ccc(Nc3nc(-c4c(C)nc5ccccn45)cs3)cc2O1 [Compound 17, N-(benzo[d][1,3]dioxol-5-yl-2,2-d2)-4-(2-methylimidazo[1,2-c]pyridin-3-yl)thiazol-2-amine hydrochloride] | – | – | lowered STAT1 | 101% | 953 mL/min/kg | 100% | 91% | 56% | 20% | 3% | 81% | 3% | < 50% | 12 min | 0.02 µM | 0.01 µM
